Values of other authors as cited in patent US20070219271A1, “Pharmaceutical Compositions Containing Pufa And At Least One Of An Immunosuppressive Agent Or An Antineoplastic Agent” (Tillotts Pharma AG, priority 2004, published 2007).

Test system: human squamous carcinoma line and multidrug-resistant and carboplatin-resistant variants
Details: cells pre-treated with GLA

In the case of CCCCC/C=C\C/C=C\C/C=C\CCCCC(=O)O [GLA, gamma-linoleic acid], the “enhancement of vincristine toxicity” value is listed as “up to 40%” and the “enhancement of toxicity of carboplatin” value (depending on the concentration of GLA, human squamous carcinoma and carboplatin-resistant variant cell lines) is listed as greater than 50%.
